Patent US4613618A, “Method for treating disorders of lipid metabolism using benzene sulfonamides” (Choay S.A., priority 1981, dated 1986)
Where two headings read alike, the source gives them in different places.

System: hyperlipidemia caused by the administration of TRITON
Test: Triton test: lipid regulating activity in hyperlipidemia caused by TRITON W. R.
Format: in vivo, WISTAR male rats
Settings: Rattus norvegicus, po, 250 mg/kg orally, 6 hours and/or 24 hours
Method: In a first series of experiments, products were tested on a hyperlipidemia caused by the administration of TRITON according to the following procedure.
The tests were carried out on groups of five WISTAR male rats whose weight varied from 150 to 175 g.
The tested products were administered, orally in the form of a 3% aqueous solution of tragacanth gum in the ratio of 1 ml per 100 g of body weight, in an amount corresponding to 250 mg/kg.
To carry out these tests, a hyperlipidemia was caused in the animals, by means of the product marketed by the ROHM and HAAS Company under the name TRITON W. R.
On this hyperlipidemia the effects obtained by the administration of the active substances according to the invention, are observed.
The tests were carried out as follows:
the rats were fasted for 18 hours, then the TRITON W. R. was administered intravenously in 10% aqueous solution in the proportion of 200 mg/kg;
simultaneously 250 mg/kg of the product under test was administered orally;
6 hours and/or 24 hours later, blood assays were carried out conventionally.
to the total cholesterol, […]

[1] = read-out: Total cholesterol, % of decrease with respect to Triton control
[2] = read-out: Total lipids, % of decrease with respect to Triton control
[3] = read-out: Triglycerides, % of decrease with respect to Triton control

CCOC(=O)CCCCCNS(=O)(=O)c1cc(Cl)c([N+](=O)[O-])cc1OC [compound 380, ethyl ester of (5-chloro 4-nitro 2-methoxy benzenesulfonamide)caproic acid]
change in vivo at 250 mg/kg [1]: -19% | change in vivo at 250 mg/kg [2]: -31% | change in vivo at 250 mg/kg [3]: -86%

CCOC(=O)CCCCCNS(=O)(=O)c1cc(Cl)c(N)cc1OC [compound 469]
change in vivo at 250 mg/kg [1]: -3% | change in vivo at 250 mg/kg [2]: -30% | change in vivo at 250 mg/kg [3]: -28%

CCOC(=O)CCCNS(=O)(=O)c1cc(Cl)c(N)cc1OC [compound 484]
change in vivo at 250 mg/kg [2]: -41%

CCOC(=O)CCCNS(=O)(=O)c1cc(Cl)c([N+](=O)[O-])cc1OC [compound 486]
change in vivo at 250 mg/kg [2]: -66% | change in vivo at 250 mg/kg [3]: -21%

COc1cc([N+](=O)[O-])c(Cl)cc1S(=O)(=O)NCCCCCCCCCCC(=O)O [compound 501]
change in vivo at 250 mg/kg [1]: -24% | change in vivo at 250 mg/kg [2]: -17% | change in vivo at 250 mg/kg [3]: -18%

CCOC(=O)CCCCCCCCCCNS(=O)(=O)c1cc(Cl)c(N)cc1OC [compound 503]
change in vivo at 250 mg/kg [2]: -26% | change in vivo at 250 mg/kg [3]: -18%

COc1cc([N+](=O)[O-])c(Cl)cc1S(=O)(=O)NCCCCCCCC(=O)O [compound 504]
change in vivo at 250 mg/kg [1]: -45%

CCOC(=O)CCCCCCCNS(=O)(=O)c1cc(Cl)c([N+](=O)[O-])cc1OC [compound 508]
change in vivo at 250 mg/kg [1]: -8% | change in vivo at 250 mg/kg [2]: -17%

O=C(O)CCCCCNS(=O)(=O)c1ccc([N+](=O)[O-])cc1 [compound 562]
change in vivo at 250 mg/kg [2]: -6%

CCOC(=O)CCCCCNS(=O)(=O)c1ccc([N+](=O)[O-])cc1 [compound 563]
change in vivo at 250 mg/kg [1]: -8% | change in vivo at 250 mg/kg [2]: -27%

O=C(O)CCCCCCCCCCNS(=O)(=O)c1ccc([N+](=O)[O-])cc1 [compound 564]
change in vivo at 250 mg/kg [2]: -37% | change in vivo at 250 mg/kg [3]: -15%

CCOC(=O)CCCCCNS(=O)(=O)c1ccc([N+](=O)[O-])cc1OC [compound 608]
change in vivo at 250 mg/kg [1]: -19% | change in vivo at 250 mg/kg [2]: -15%

CCOC(=O)CCCCCNS(=O)(=O)c1ccc(N)cc1 [compound 609]
change in vivo at 250 mg/kg [1]: -40% | change in vivo at 250 mg/kg [3]: -2%

CCOC(=O)CCCCCCCCCCNS(=O)(=O)c1ccc([N+](=O)[O-])cc1 [compound 610]
change in vivo at 250 mg/kg [1]: -20% | change in vivo at 250 mg/kg [2]: -2%

CCOC(=O)CCCCCCCCCCNS(=O)(=O)c1ccc([N+](=O)[O-])cc1OC [compound 611]
change in vivo at 250 mg/kg [1]: -29% | change in vivo at 250 mg/kg [2]: -15%

CCOC(=O)CCCCCNS(=O)(=O)c1ccc(N)cc1OC [compound 612]
change in vivo at 250 mg/kg [1]: -1% | change in vivo at 250 mg/kg [2]: -48% | change in vivo at 250 mg/kg [3]: -13%

CCOC(=O)CCCNS(=O)(=O)c1ccc(N)cc1 [compound 624]
change in vivo at 250 mg/kg [1]: -18%

CCOC(=O)CCCNS(=O)(=O)c1ccc([N+](=O)[O-])cc1OC [compound 625]
change in vivo at 250 mg/kg [3]: -5%

CCOC(=O)CCCCCCCCCCNS(=O)(=O)c1ccc(N)cc1 [compound 626]
change in vivo at 250 mg/kg [1]: -18%

CCOC(=O)CCCNS(=O)(=O)c1ccc(N)cc1OC [compound 656]
change in vivo at 250 mg/kg [1]: -14% | change in vivo at 250 mg/kg [2]: -3% | change in vivo at 250 mg/kg [3]: -29%

COc1cc([N+](=O)[O-])ccc1S(=O)(=O)NCCCC(=O)O [compound 660]
change in vivo at 250 mg/kg [1]: -42% | change in vivo at 250 mg/kg [2]: -36% | change in vivo at 250 mg/kg [3]: -90%

COc1cc([N+](=O)[O-])ccc1S(=O)(=O)NCCCCCCCCCCC(=O)O [compound 661]
change in vivo at 250 mg/kg [1]: -37% | change in vivo at 250 mg/kg [3]: -86%

CCOC(=O)CCCCCNS(=O)(=O)c1cccc([N+](=O)[O-])c1 [compound 666]
change in vivo at 250 mg/kg [2]: -20%

Nc1ccc(S(=O)(=O)NCCCCCCCCCCC(=O)O)cc1 [compound 667]
change in vivo at 250 mg/kg [1]: -7% | change in vivo at 250 mg/kg [2]: -45%

COc1cc(N)ccc1S(=O)(=O)NCCCCCCCCCCC(=O)O [compound 668]
change in vivo at 250 mg/kg [1]: -27% | change in vivo at 250 mg/kg [2]: -20% | change in vivo at 250 mg/kg [3]: -29%
